From patent EP0189941A2, “Antibiotic compositions” (Bristol-Myers Squibb Company, priority 1985, dated 1986)
Where two headings read alike, the source gives them in different places.

What was measured:
[1] = From the text: The most preferred pH range of the reconstituted solution is about 4 to about 5, because pain upon injection normally increases with […].
For this reason, it is not possible to give absolute gram amounts of cefbuperazone and lysine, arginine, lysine acetate and/or arginine acetate to produce a specific pH. The amount of each ingredient can readily be determined for individual batches of the two components by titration of the cefbuperazone with the other component.

physchem = conditions: dry state, % Loss
[2] = dry state
[3] = pH of unit dosage forms reconstituted with Sterile Water for Injection; type: physicochemical; conditions: diluted with Sterile Water for Injection, U.S.P. to 333 mg of cefbuperazone activity per ml
[4] = system: weanling female Sprague-Dawley rats; assay: Rat paw-lick test for pain on injection; type: in vivo; conditions: pH 5.3; 0.1 ml subplantar, 333 mg activity per ml; mean 0-3 minutes after injection ± Standard Error
Procedure: The test animals were weanling female Sprague-Dawley rats. The test solutions were injected into the subplantar tissue of the right or left hind paw, using a syringe with a 27 gauge, 1/2-inch needle. […] The paw-lick response, an indicator of the pain caused by the injection, was recorded for each rat for three minutes following the injection. A paw-licking episode is defined as a licking response followed by a turning of the head away from the paw or five seconds of uninterrupted licking.

[5] = Stability in the dry state (% loss on storage at elevated temperature); conditions: 100°C - 1 day, listed as Lyophilized anhydrous sodium cefbuperazone
[6] = Intravenous toxicity test (LD50); conditions: mouse, in vivo, mice, dosing solution 333 mg of cefbuperazone activity per ml, parentheses = 95% confidence limits
Procedure: Intravenous toxicity tests were conducted in Swiss-Webster mice using the sodium salt of cefbuperazone and the compositions of the present invention. In each case, the dosing solution contained 333 mg of cefbuperazone activity per ml.

Hygroscopicity = type: physicochemical; conditions: in words

CCN1CCN(C(=O)NC(C(=O)NC2(OC)C(=O)N3C(C(=O)O)=C(CSc4nnnn4C)CSC32)C(C)O)C(=O)C1=O (stereo not shown) [Cefbuperazone free acid dihydrate]
water solubility [1]: insufficiently water-soluble | pH at which solution of the cefbuperazone takes place ([1]; 264.4 mg suspended in 10 ml of water, titrated with aqueous L(+) lysine): ~3.5 | degraded at 168 h (physchem): 3.7% | degraded at 840 h (physchem): 0% | degraded at 1008 h (physchem): 1.8% | % Loss ([2]; 24 h): + 4.5% | % Loss ([2]; 48 h): + 3.3% | % Loss ([2]; 336 h): + 4.6% | % Loss ([2]; 1344 h): + 2.2%

CCN1CCN(C(=O)NC(C(=O)NC2(OC)C(=O)N3C(C(=O)O)=C(CSc4nnnn4C)CSC32)C(C)O)C(=O)C1=O (stereo not shown) [sodium cefbuperazone]
pH of Solution [3]: 5.3 | Paw-Lick Response [4]: 5.20 ± 1.31 (10) | % Loss [5]: melts/decomposes | LD50 [6]: > 5000 mg/kg | % Loss ([2]; 72 h): 37.2% | % Loss ([2]; 336 h): 38.0% | % Loss ([2]; 1344 h): 35.0%

CCN1CCN(C(=O)NC(C(=O)NC2(OC)C(=O)N3C(C(=O)O)=C(CSc4nnnn4C)CSC32)C(C)O)C(=O)C1=O (stereo not shown) [Cefbuperazone free acid hemiacetonate]
hygroscopicity (Hygroscopicity): non- hygroscopic | % Loss ([2]; 48 h): 0% | % Loss ([2]; 336 h): 0%

CCN1CCN(C(=O)NC(C(=O)NC2(OC)C(=O)N3C(C(=O)O)=C(CSc4nnnn4C)CSC32)C(C)O)C(=O)C1=O (stereo not shown) [Anhydrous cefbuperazone free acid]
% Loss ([2]; 72 h): 7.8% | % Loss ([2]; 168 h): 4.1% | % Loss ([2]; 672 h): 3.4%
